# In patent US4309559A, “Sulphonamides useful as pesticides” (FBC Limited, priority 1977, dated 1982):
# Assays:
# [1] = system: Sugarbeet (Beta vulgaris); assay: Post-emergence foliar spray, herbicidal/growth regulant response, sugarbeet; format: in vivo; details: 168 h, foliar spray 11.2 kg/ha, 7 days, 0=no effect, 100=complete kill, read-out: herbicidal or growth regulant response index
# Procedure, shortened: (§1)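 Foliar spray, 14-day-old seedlings; 11.2 kg/ha in 450 L/ha, 1:1 aq. acetone. Controlled room 22° C., 65-85% RH, 14 h light (13,000 lux). Visual score vs untreated control at 7 d, 0–100 (100 = complete kill).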
# Peas (Pisum sativum) = assay: Post-emergence foliar spray, herbicidal/growth regulant response, peas; format: in vivo; details: Lathyrus oleraceus, 168 h, foliar spray 11.2 kg/ha, 7 days, 0=no effect, 100=complete kill, read-out: herbicidal or growth regulant response index
# Procedure, shortened: as §1
# Mustard (Sinapis alba) = assay: Post-emergence foliar spray, herbicidal/growth regulant response, mustard; format: in vivo; details: 168 h, foliar spray 11.2 kg/ha, 7 days, 0=no effect, 100=complete kill, read-out: herbicidal or growth regulant response index
# Procedure, shortened: as §1
# Pythium ultimum = assay: Cabbage seedling emergence in soil infected with Pythium ultimum; format: in vivo, Pythium ultimum (on cabbage, variety Flower of Spring); details: 6 days, 25° C., 0-8 scale
# Procedure, shortened: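 Potting compost infested with one-week maize meal/sand Pythium ultimum culture (3 kg per 12 l soil), drenched with compound in Tween 20/water at 1500, 500, 150 or 50 ppm; 15 cabbage seeds sown per carton, 25° C, four replicates. After six days, soil-surface fungal growth and seedling emergence scored 0-8.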
# Barley (Hordeum vulgare) = assay: Pre-emergence soil surface spray, barley; format: in vivo; details: soil surface spray 2.8 kg/ha, 21 days, 0=no effect, 100=complete kill
# Procedure, shortened: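 Compounds are applied to the compost surface right after sowing, at 2.8 kg active ingredient per hectare. After 21 days in a controlled environment room at 22° C., any difference from untreated plants is rated visually from 0 (no effect) to 100 (complete kill).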
smiles,measurement,setting,value
"CCCS(=O)(=O)N(c1c(C)cccc1C)C(C)C(=O)OCC (stereo not drawn) [Example 24, N-(1-[ethoxycarbonyl]ethyl)-2',6'-dimethyl-1-propanesulphonanilide]",plant injury at 11200 g/ha,[1],90%
same,pest or weed control at 11200 g/ha,Peas (Pisum sativum),20%
same,pest or weed control at 11200 g/ha,Mustard (Sinapis alba),100%
same,Germination Score,Pythium ultimum; 30 ppm,1 (20-34% inhibition)
same,Germination Score,Pythium ultimum; 100 ppm,5 (65-74% inhibition)
same,growth regulatory or herbicidal effect score,Barley (Hordeum vulgare),30
